How the values were obtained:
[1] = tested on: COLO205 cancer cells; test: In vitro combination study with Compound 1, Cell Titer-Glo (ATP) cell viability, 72 h; type: cell-based, human; conditions: Table 5 drug combined with Compound 1; 72 h;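 note: Ten-by-ten dose matrices of both agents in duplicate plus single-agent dilutions, luminescent ATP read-out, percent activity per well relative to DMSO vehicle wells, synergy call from these matrices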
[2] = tested on: HCT116 cancer cells; test: as above; type: cell-based; conditions: Table 5 drug combined with Compound 1; 72 h;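 note: combination call from 10×10 dose matrices in duplicate, graded by synergy, with percent activity per well relative to DMSO vehicle controls on the same plate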
[3] = tested on: A549 cancer cells; test: as above; type: cell-based; conditions: Table 5 drug combined with Compound 1; 72 h;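 note: Ten-by-ten dose matrices of the two agents in duplicate, compounds added 16 h post-plating, activity relative to DMSO vehicle wells, call reflects synergy evaluation from luminescence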
[4] = tested on: PHTXM-90Es (Esophagus); test: In vivo combination study, Patient Derived Xenograft; design: species or system mouse
Method: (§1) To investigate in vivo antitumor activity of Compound 1 in combination with other agents, tests using Cell Derived Xenograft (CDX), Patient Derived Xenograft (PDX) and Syngeneic mouse tumor isograft model were conducted. Cells or Patient Derived Tumors were inoculated by one method of the following two methods (Method A and B) as shown Table 7.
(§2) Method A; Cells were maintained in either immune deficient nude mice or immune competent mice by subcutaneous inoculation of tumor cells at various concentrations into respected mice. Method B: Patient Derived Tumor s were maintained in nude mice by subcutaneous inoculation of tumor pieces (approx. 2×2×2 mm) into nude mice. Mice with tumor size of approximately 50 mm^3 (e.g., 40-75 mm^3) for syngeneic mouse studies or 200 mm^3 (e.g., 110-270 mm^3) for xenograft studies were randomly assigned to dose groups on the day (Day 0) before start date of dosing.
(§3) Compound 1 (crystalline form I) was suspended in 0.5 w/v % methylcellulose and administered orally to mice. Antibodies which administered in the experiment were described in Table 8.
(§4) Tumor size was measured by caliper and tumor volume was estimated using the equation V=(LW^2)/2, where L and W are tumor length and width, respectively and reported in cubic millimeters.
(§5) These values were compared across treatment groups to assess whether the differences in the trends over time were statistically significant. To compare pairs of treatment groups, the following mixed-effects linear regression model was fit to the data using the maximum likelihood method:
(§6) For synergy analyses, the observed differences in the log tumor values were used to calculate AUC values for each animal. In instances when an animal in a treatment group was removed from the study, the last observed tumor value was carried forward through all subsequent time points. The AUC for the control, or vehicle, group was calculated using the predicted values from the pairwise models described above. We defined a measure of synergy as follows:
(§7) where Ak and Bk are the k^th animal in the individual treatment groups and ABk is the k^th animal in combination treatment group. AUCcd is the model-predicted AUC for the control group and was treated as a constant with no variability. The standard error of the synergy score was calculated as the square root of the sum of squared standard errors across groups A, B, and AB. The degrees of freedom were estimated using the Welch-Satterthwaite equation. A hypothesis test was performed to determine if the synergy score differed from 0. P values were calculated by dividing the synergy score by its standard error and tested against a t-distribution (two-tailed) with the above-calculated degrees of freedom.
(§8) The effect was classified into four different categories. It was considered synergistic if the synergy score was less than 0 and additive if the synergy score wasn't statistically different from 0. If the synergy score was greater than zero, but the mean AUC for the combination was lower than the lowest mean AUC among the two single agent treatments, then the combination was sub-additive. If the synergy score was greater than zero, and the mean AUC for the combination was greater than the mean AUC for at least one of the single agent treatments, then the combination was antagonistic.

[5] = tested on: PHTXM-35Es human primary esophagus cancer xenografts; test: as above; design: species or system mouse
Method: as §1, §2, §3, §4, §5, §6, §7, §8

[6] = tested on: DU-145 (Prostate); test: In vivo combination study, Cell Derived Xenograft; design: species or system mouse; conditions: DU-145 (165 mm^3); Compound 1 60 mg/kg once daily Day 1-21; drug 10 mg/kg intravenously once weekly Days 1,8,15
Method: as §1
Method A; Cells were maintained in either immune deficient nude mice or immune competent mice by subcutaneous inoculation of tumor cells at various concentrations into respected mice. Method B: Patient Derived Tumor s were maintained in nude mice by subcutaneous inoculation of tumor pieces (approx. 2×2×2 mm) into nude mice. […]
Tumor size was measured by caliper and tumor volume was estimated using the equation V=(LW^2)/2, where L and W are tumor length and width, respectively and reported in cubic millimeters. […]
For synergy analyses, the observed differences in the log tumor values were used to calculate AUC values for each animal. […] The AUC for the control, or vehicle, group was calculated using the predicted values from the pairwise models described above. […]
where Ak and Bk are the k^th animal in the individual treatment groups and ABk is the k^th animal in combination treatment group. […] The standard error of the synergy score was calculated as the square root of the sum of squared standard errors across groups A, B, and AB. […]

[7] = tested on: SW620 cancer cells; test: In vitro combination study with Compound 1, Cell Titer-Glo (ATP) cell viability, 72 h; type: cell-based; conditions: Table 5 drug combined with Compound 1; 72 h;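 note: Ten-by-ten dose matrices of both drugs in 384-well plates, luminescent ATP read-out, synergy evaluated against single-agent and DMSO vehicle controls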
[8] = tested on: PHTXM-79Es human primary esophagus cancer xenografts; test: In vivo combination study, Patient Derived Xenograft; design: species or system mouse; key to Result (combination with Compound 1, tumor growth): synergistic if the synergy score was less than 0; additive if the synergy score wasn't statistically different from 0; If the synergy score was greater than zero, but the mean AUC for the combination was lower than the lowest mean AUC among the two single agent treatments, then the combination was sub-additive; If the synergy score was greater than zero, and the mean AUC for the combination was greater than the mean AUC for at least one of the single agent treatments, then the combination was antagonistic; conditions: for antitumor activity: combined with Compound 1, PHTXM-79Es human primary esophagus cancer xenografts
Method: as §1, §2, §3, §4, §5, §6, §7, §8

[9] = tested on: H460 cancer cells; test: In vitro combination study with Compound 1, Cell Titer-Glo (ATP) cell viability, 72 h; type: cell-based; conditions: Table 5 drug combined with Compound 1; 72 h;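 note: Ten-by-ten dose matrices of both drugs alongside single-agent dilutions, luminescence read 72 hours after compound addition, percent activity per well versus vehicle (DMSO) plate controls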
[10] = tested on: PHTX-09C (Colorectal); test: In vivo combination study, Patient Derived Xenograft; design: species or system mouse; conditions: PHTX-09C (155 mm^3)
[11] = tested on: PHTX-11C; test: In vivo combination study, xenograft; design: species or system mouse; conditions: PHTX-11C (270 mm^3)
[12] = tested on: H-1650 (Lung); test: In vitro combination study for selected compounds, additional cell lines; type: cell-based; conditions: drug combined with Compound 1
Method: (§9) In vitro anti-proliferative effects of selected compounds were tested in additional cell lines, including ovarian cancer (SKOV3) and pancreatic cancer (MIA-PACA-2) cell lines.

[13] = tested on: ovarian cancer (SKOV3) cell line; test: as above; type: cell-based; conditions: drug combined with Compound 1
Method: as §9

[14] = tested on: pancreatic cancer (MIA-PACA-2) cell line; test: as above; type: cell-based; conditions: drug combined with Compound 1
Method: as §9

[15] = tested on: CALU6 (Lung); test: as above; type: cell-based; conditions: drug combined with Compound 1
Method: as §9

[16] = Compound 1 40 mg/kg once daily Day 1-21, drug 15 mg/kg intravenously Days 1-3, 8-10, 15-17
[17] = Compound 1 40 mg/kg once daily Day 1-21, drug 25 mg/kg intravenously Days 1-3, 8-10, 15-17
[18] = Compound 1 60 mg/kg once daily Day 1-21, drug 15 mg/kg intravenously Days 1-3, 8-10, 15-17
[19] = Compound 1 60 mg/kg once daily Day 1-21, drug 25 mg/kg intravenously Days 1-3, 8-10, 15-17

With `CC(=O)O[C@@]12CO[C@@H]1C[C@H](O)[C@@]1(C)C(=O)[C@H](O)C3=C(C)[C@@H](OC(=O)[C@H](O)[C@@H](NC(=O)OC(C)(C)C)c4ccccc4)C[C@@](O)([C@@H](OC(=O)c4ccccc4)[C@H]21)C3(C)C` [Docetaxel] the “Call, anti-proliferative effect of combination with Compound 1, COLO205” value [1] was “Additivity (0.7 to 1.3)”, the “Call, anti-proliferative effect of combination with Compound 1, HCT116” value [2] was “Additivity (0.7 to 1.3)” and the “Call, anti-proliferative effect of combination with Compound 1, A549” value [3] was “Subadditivity (1.3 to 2)”. The “Result (combination with Compound 1, tumor growth)” value (“Result” below) ([4]; PHTXM-90Es (220 mm^3), Compound 1 40 mg/kg once daily Day 1-21, drug 10 mg/kg intravenously once weekly Days 1,8,15) was “Additive”, the “Result” value ([4]; PHTXM-90Es (220 mm^3), Compound 1 60 mg/kg once daily Day 1-21, drug 10 mg/kg intravenously once weekly Days 1,8,15) was “Additive” and the “Result” value ([5]; PHTXM-35Es (150 mm^3) FIG. 4B, Compound 1 40 mg/kg once daily Day 1-21, drug 10 mg/kg intravenously once weekly Days 1,8,15) was “Synergistic”. The “Result” value ([5]; PHTXM-35Es (150 mm^3) FIG. 4B, Compound 1 60 mg/kg once daily Day 1-21, drug 10 mg/kg intravenously once weekly Days 1,8,15) was “Additive”, the “Result” value ([5]; PHTXM-35Es (190 mm^3), Compound 1 40 mg/kg once daily Day 1-21, drug 10 mg/kg intravenously once weekly Days 1,8,15) was “Synergistic” and the “Result” value ([5]; PHTXM-35Es (190 mm^3), Compound 1 60 mg/kg once daily Day 1-21, drug 10 mg/kg intravenously once weekly Days 1,8,15) was “Synergistic”. For the same molecule, the antitumor activity ([5]; combined with Compound 1, PHTXM-35Es human primary esophagus cancer xenografts, FIG. 4B) was “strong antitumor activity compared to either single treatment alone”, the “Result” value [6] was “Additive” and the “Call, anti-proliferative effect of combination with Compound 1, SW620” value [7] was “Synergy (0 to 0.7)”. The “Result” value ([8]; PHTX-79Es (135 mm^3) FIG. 5A, Compound 1 40 mg/kg once daily Day 1-21, drug 10 mg/kg intravenously once weekly Days 1,8,15) was “Synergistic”, the “Result” value ([8]; PHTX-79Es (135 mm^3) FIG. 5A, Compound 1 60 mg/kg once daily Day 1-21, drug 10 mg/kg intravenously once weekly Days 1,8,15) was “additive” and the antitumor activity ([8]; FIG. 5A) was “strong antitumor activity compared to either single treatment alone”. For the same molecule, the “Call, anti-proliferative effect of combination with Compound 1, H460” value [9] was “Additivity (0.7 to 1.3)”.

`O=c1[nH]cc(F)c(=O)[nH]1` [Fluorouracil] was tested, and the “Result” value [10, 16] was “Additive”, the “Result” value [10, 17] was “Additive” and the “Result” value [10, 18] was “Additive”. For the same molecule, the “Result” value [10, 19] was “subadditive”, the “Result” value ([4]; PHTXM-90Es (185 mm^3), Compound 1 60 mg/kg once daily Day 1-21, drug 25 mg/kg intravenously Days 1-3, 8-10, 15-17) was “Additive” and the “Result” value ([5]; PHTXM-35Es (240 mm^3), Compound 1 60 mg/kg once daily Day 1-21, drug 25 mg/kg intravenously Days 1-3, 8-10, 15-17) was “Additive”. For the same molecule, the “Result” value [11, 16] was “Additive”, the “Result” value [11, 17] was “Additive” and the “Result” value [11, 18] was “Additive”. For the same molecule, the “Result” value [11, 19] was “subadditive”, the “Result” value ([8]; PHTXM-79Es (160 mm^3), Compound 1 60 mg/kg once daily Day 1-21, drug 25 mg/kg intravenously Days 1-3, 8-10, 15-17) was “Synergistic” and the antitumor activity ([8]; FIG. 5B) was “strong antitumor activity compared to either single treatment alone”. For the same molecule, the “In vitro combination effect with Compound 1, Lung H-1650” value [12] was “Additive”, the “In vitro combination effect with Compound 1, Ovary SKOV3” value [13] was “Additive” and the “In vitro combination effect with Compound 1, Pancreas MIA-PACA-2” value [14] was “Additive”. The “In vitro combination effect with Compound 1, Lung CALU6” value [15] was “Synergy”.

Source: patent publication US20220323443A1, “COMBINATION THERAPY FOR CANCER TREATMENT” (TAKEDA PHARMACEUTICAL COMPANY LIMITED, priority 2019, published 2022)
